Laboratory results taken from ChEMBL document CHEMBL1201862, “PubChem BioAssay data set” (2004).
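Results reflect a 48-hour exposure of cells in 96-well plates to compound at five concentrations. Here, GI50 denotes the concentration required for 50% inhibition of growth.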 Activity calls are given as the source filed them. No stated cut-off is given here; in the data, active = GI50 up to about 1.1 µM and inactive = higher. Positions of bridges follow the written chain, without caps; N, C: chain ends. Residues, ends and D or L forms follow the SMILES beside them.

How the values were obtained:
Assay in all cases: inhibition of tumour cell growth, NCI panel, 48 h
Hs-578T = system: Hs-578T
SK-MEL-5 = system: SK-MEL-5
SF-268 = system: SF-268
HCT-116 = system: HCT-116
CCRF-CEM = system: CCRF-CEM
A549 = system: A549
OVCAR-8 = system: OVCAR-8
HCT-15 = system: HCT-15
DU-145 = system: DU-145
Malme-3M = system: Malme-3M
BT-549 = system: BT-549
NCI-H23 = system: NCI-H23
PC-3 = system: PC-3
NCI-H226 = system: NCI-H226
TK-10 = system: TK-10
SF-295 = system: SF-295
NCI-H522 = system: NCI-H522
HOP-62 = system: HOP-62
HOP-92 = system: HOP-92
HCC 2998 = system: HCC 2998

SMILES | GI50 (Hs-578T) | GI50 (SK-MEL-5) | GI50 (SF-268) | GI50 (HCT-116) | GI50 (CCRF-CEM) | GI50 (A549) | GI50 (OVCAR-8) | GI50 (HCT-15) [µM] | GI50 (DU-145) | GI50 (Malme-3M) | GI50 (BT-549) | GI50 (NCI-H23) | GI50 (PC-3) | GI50 (NCI-H226) | GI50 (TK-10) | GI50 (SF-295) | GI50 (NCI-H522) | GI50 (HOP-62) | GI50 (HOP-92) | GI50 (HCC 2998)
N#Cc1c(-c2ccccc2)c(C=O)c(=O)n2c1[nH]c1ccccc12 | 31.3 µM (inactive) | > 100 µM (inactive) | 65.9 µM (inactive) | 82.4 µM (inactive) | 17.6 µM (inactive) | > 100 µM (inactive) | > 100 µM (inactive) | 70 | > 100 µM (inactive) | > 100 µM (inactive) | 39.1 µM (inactive) | 61.7 µM (inactive) | > 100 µM (inactive) | 55.6 µM (inactive) | 77.3 µM (inactive) | > 100 µM (inactive) | 55.6 µM (inactive) |  |  | 
Cc1ccc(/N=N/c2c(O)c(C(=O)O)cc3ccccc23)cc1C | 42.3 µM (inactive) | > 100 µM (inactive) | > 100 µM (inactive) | > 100 µM (inactive) | > 100 µM (inactive) | > 100 µM (inactive) | > 100 µM (inactive) | > 100 |  | > 100 µM (inactive) | > 100 µM (inactive) | > 100 µM (inactive) | > 100 µM (inactive) | > 100 µM (inactive) | > 100 µM (inactive) | > 100 µM (inactive) | > 100 µM (inactive) | 62.5 µM (inactive) | > 100 µM (inactive) | > 100 µM (inactive)
CCN(CC)Cc1cc(Nc2c3ccccc3nc3c2[nH]c2ccccc23)cc(CN(CC)CC)c1O | 2.15 µM (inactive) | 1.6 µM (inactive) | 0.813 µM (active) | 0.33 µM (active) |  | 0.566 µM (active) | 0.5 µM (active) | 0.684 | 1.32 µM (inactive) |  | 1.41 µM (inactive) | 1.11 µM (active) | 0.64 µM (active) | 2.45 µM (inactive) | 2.42 µM (inactive) | 1.28 µM (inactive) | 0.624 µM (active) | 0.598 µM (active) | 1.14 µM (inactive) | 0.836 µM (active)
CC(C)(C)OC(=O)NCC(=O)NC1C/C(=N\O)c2sccc21 (stereo not drawn) | > 100 µM (inactive) | > 100 µM (inactive) | > 100 µM (inactive) | > 100 µM (inactive) | > 100 µM (inactive) | > 100 µM (inactive) | > 100 µM (inactive) | > 100 | > 100 µM (inactive) | > 100 µM (inactive) | > 100 µM (inactive) | > 100 µM (inactive) | > 100 µM (inactive) | > 100 µM (inactive) | > 100 µM (inactive) | > 100 µM (inactive) |  | > 100 µM (inactive) |  | > 100 µM (inactive)
Cc1cccc(NC(=S)Nc2ccccc2Cl)n1 | 38.4 µM (inactive) | 27.9 µM (inactive) | 28.7 µM (inactive) | > 100 µM (inactive) | > 100 µM (inactive) | 47.6 µM (inactive) | 29.6 µM (inactive) | 76.9 | > 100 µM (inactive) | 38 µM (inactive) | 59.7 µM (inactive) |  | > 100 µM (inactive) | 39 µM (inactive) | 34.8 µM (inactive) | 32 µM (inactive) |  | 22.3 µM (inactive) |  | 
S=C1c2ccc(Cl)cc2-n2cnnc2C2CSCN12 (stereo not drawn) | > 100 µM (inactive) | > 100 µM (inactive) | > 100 µM (inactive) | 62.5 µM (inactive) | > 100 µM (inactive) | > 100 µM (inactive) | > 100 µM (inactive) | > 100 | > 100 µM (inactive) | > 100 µM (inactive) | > 100 µM (inactive) |  | > 100 µM (inactive) | > 100 µM (inactive) | > 100 µM (inactive) | > 100 µM (inactive) | > 100 µM (inactive) | > 100 µM (inactive) |  | > 100 µM (inactive)
Nc1ncc(CN2CCOCC2)c(-c2ccccc2O)n1 | > 100 µM (inactive) | > 100 µM (inactive) | > 100 µM (inactive) | > 100 µM (inactive) | > 100 µM (inactive) | > 100 µM (inactive) | > 100 µM (inactive) | > 100 | > 100 µM (inactive) | > 100 µM (inactive) | > 100 µM (inactive) | > 100 µM (inactive) | > 100 µM (inactive) | > 100 µM (inactive) | > 100 µM (inactive) | > 100 µM (inactive) |  | > 100 µM (inactive) | > 100 µM (inactive) | 
C=C(CC)C[C@@H]1C[C@]2(C(=O)OC)c3[nH]c4ccccc4c3CCN2C1=O | 14.2 µM (inactive) | 17.1 µM (inactive) | 21.6 µM (inactive) | 14.7 µM (inactive) |  | 14.7 µM (inactive) | 33 µM (inactive) | 16.6 | 30.4 µM (inactive) | 20.7 µM (inactive) | 22 µM (inactive) | 18.9 µM (inactive) | 16.7 µM (inactive) |  | 35.3 µM (inactive) | 14.7 µM (inactive) | 14.6 µM (inactive) | 17.9 µM (inactive) | 14.7 µM (inactive) | 18.4 µM (inactive)
O=c1c2cccnc2cc(-c2ccccc2)n1CCO | > 100 µM (inactive) | > 100 µM (inactive) | 59.2 µM (inactive) | > 100 µM (inactive) | > 100 µM (inactive) | > 100 µM (inactive) | > 100 µM (inactive) | > 100 | > 100 µM (inactive) | > 100 µM (inactive) | > 100 µM (inactive) | > 100 µM (inactive) | > 100 µM (inactive) | > 100 µM (inactive) | > 100 µM (inactive) | > 100 µM (inactive) | > 100 µM (inactive) | > 100 µM (inactive) |  | > 100 µM (inactive)
COc1ccc(-c2cc(-c3ccco3)c(C#N)c(=S)n2C2OC(CO)C(O)C(O)C2O)cc1 (stereo not drawn) | > 100 µM (inactive) | 44.7 µM (inactive) | > 100 µM (inactive) | > 100 µM (inactive) | > 100 µM (inactive) | > 100 µM (inactive) | > 100 µM (inactive) | > 100 | > 10 µM (inactive) | > 100 µM (inactive) | > 100 µM (inactive) | > 100 µM (inactive) | > 100 µM (inactive) | > 100 µM (inactive) | > 100 µM (inactive) | 80.4 µM (inactive) | > 100 µM (inactive) | > 100 µM (inactive) |  | 25 µM (inactive)
O=C1c2cc3c(cc2CC1Br)CCC3 (stereo not drawn) | 4.06 µM (inactive) | 1.18 µM (inactive) | 4.41 µM (inactive) | 1.53 µM (inactive) | 0.405 µM (active) | 18.2 µM (inactive) | 1.98 µM (inactive) | 1.96 | 16 µM (inactive) | 1.01 µM (active) | 1.96 µM (inactive) | 3 µM (inactive) | 3.28 µM (inactive) | 3.36 µM (inactive) | 2.75 µM (inactive) | 5.19 µM (inactive) | 1.45 µM (inactive) | 13.8 µM (inactive) |  | 5.64 µM (inactive)
CCCOc1ccc2sc(NC(=O)c3cc([N+](=O)[O-])cc([N+](=O)[O-])c3)nc2c1 | 13.7 µM (inactive) | 17 µM (inactive) | 43.8 µM (inactive) | 20.6 µM (inactive) | 30.3 µM (inactive) | 24.1 µM (inactive) | 31.3 µM (inactive) | 53.7 | 60.7 µM (inactive) | 25.4 µM (inactive) | 47.8 µM (inactive) | 23 µM (inactive) | 28.4 µM (inactive) | 27.9 µM (inactive) | 28.1 µM (inactive) | 35.6 µM (inactive) |  | 78.9 µM (inactive) | 16 µM (inactive) | 
Cc1nn(C(=O)Cc2ccccc2)c2c1C(c1ccc(Cl)cc1)SC(=N)N2 (stereo not drawn) | > 100 µM (inactive) | > 100 µM (inactive) | > 100 µM (inactive) | > 100 µM (inactive) | > 100 µM (inactive) | > 100 µM (inactive) | > 100 µM (inactive) | > 100 | > 100 µM (inactive) | > 100 µM (inactive) | > 100 µM (inactive) | > 100 µM (inactive) | > 100 µM (inactive) |  | > 100 µM (inactive) | > 100 µM (inactive) | > 100 µM (inactive) | > 100 µM (inactive) |  | > 100 µM (inactive)
SC1=NC2=C(CSC/C2=C\c2ccccc2)C(c2ccccc2)N1 (stereo not drawn) |  | 12.1 µM (inactive) | 64.6 µM (inactive) | 29.5 µM (inactive) | 36.6 µM (inactive) | 38.5 µM (inactive) | 42.2 µM (inactive) | 41.7 | 95.1 µM (inactive) | 28.6 µM (inactive) | 26.2 µM (inactive) | 31.9 µM (inactive) | 34.4 µM (inactive) | 56.4 µM (inactive) | 61.8 µM (inactive) | 21.6 µM (inactive) | 59.4 µM (inactive) | > 100 µM (inactive) | 37.6 µM (inactive) | 42.5 µM (inactive)
COC(=O)C1CCC(=O)NCCCCC(NC(=O)C(N)CC(=O)O)C(=O)N1 (stereo not drawn) (H-Asp-Lys-Glu-OMe; lactam 2-3; configuration not given here) | > 100 µM (inactive) | > 100 µM (inactive) | > 100 µM (inactive) | 60 µM (inactive) | 32.4 µM (inactive) | > 100 µM (inactive) | > 100 µM (inactive) | > 100 | > 100 µM (inactive) | > 100 µM (inactive) | > 100 µM (inactive) | 92.5 µM (inactive) | > 100 µM (inactive) | > 100 µM (inactive) | > 100 µM (inactive) | > 100 µM (inactive) | > 100 µM (inactive) | > 100 µM (inactive) |  | > 100 µM (inactive)
